Where no end group is shown, it is not given here.
Assays:
Assay type in all cases: biochemical
[1] = test system: trypsin; experiment: Trypsin inhibition assay (hydrolysis of N-benzoyl-D-arginine-p-nitroaniline, release of pNA); settings: HPLC peaks of the trypsin affinity column eluate
Procedure: All 8 oligonucleotides encoding either the phoA or ompA fusions were mixed together and treated with ligase. […] The ligated constructs were then ligated into the NdeI-HindIII sites of the vector pTRP233. The ligated vectors were transfected into E. coli strain MC1061 and Amp^R colonies selected. […] Miniprep DNA was used to transfect strains W3110 and JE5505. Small scale cultures of each of the three strains were grown and induced with IAA overnight. Culture supernatants were examined for trypsin inhibitory acitvity. Trypsin is assayed for its ability to hydrolyze the synthetic substrate N-benzoyl-D-arginine-p-nitroaniline to release p-nitroaniline (pNA). The release of pNA as a function of time is easily monitored in a spectrophotomer and can be quantitated to measure trypsin activity. The inhibitor is detected in this assay by virtue of its ability to bind to trypsin and prevent hydrolysis of the substrate by trypsin. Inhibitory activity wad detected in the culture medium for both ompA and phoA constructs in JE5505 but not W3110 or MC1601. Expression levels appeared to be higher with the phoA construct and so only this construct was used for subsequent experiments.

[2] = target: trypsin; experiment: Kinetics of inhibition (Ki) of the protease inhibitor for trypsin
Procedure: (§1) The analogs of the present protease inhibitors are constructed from oligonucleotides containing the specific codons encoding the desired amino acid at this location, using site-specific mutagenesis techniques as are known in the art. The desired activities of the analogs thus constructed are assayed using the appropriate enzyme, for example, either trypsin, chymotrypsin or elastase as the standard in one of the respective assays using, for example, the trypsin or chymotrypsin assays described in Tan, N. H. Biochem (1977) 16:1531-1541 and the elastase assays Barrett, A. J. (1981) in Methods in Enzymology vol. 80, L. Lorand ed., Academic Press, New York. The activity of the analogs may be compared with that of the natural protease inhibitor of the invention.

[3] = target: chymotrypsin; experiment: Kinetics of inhibition (Ki) of the protease inhibitor for chymotrypsin
Procedure: as §1

| Substance | activity in the trypsin inhibition assay [1] | Ki [2] [nM] | Ki [3] [nM] |
| --- | --- | --- | --- |
| peak 4: major HPLC peak of the purified inhibitor; mass consistent with full length A4i with 3 disulfide bridges (EVCSEQAETGPCRAMISRWYFDVTEGKCAPFFYGGCGGNRNNFDTEEYCMAVCGSAM; disulfide (positions not given here); UniProt P05067 289-345, looked up, fragment) | active | – | – |
| natural protease inhibitor: 57 amino acid Kunitz-type protease inhibitor, residues 289 through 345 of the λAPCP168i4 β-amyloid-related protein (EVCSEQAETGPCRAMISRWYFDVTEGKCAPFFYGGCGGNRNNFDTEEYCMAVCGSAM; Kunitz inhibitor domain; UniProt P05067 289-345, looked up, fragment) | – | 3 | 8.5 |

Reference: patent publication US5223482A, “Recombinant Alzheimer's protease inhibitory amyloid protein and method of use” (Scios Nova Inc., priority 1989, dated 1993)
